Molecules are shown by their SMILES.

This test addresses AMPK. The test is described as follows: AMPK activation, enzyme-linked immunosorbent assay. The test is classed as biochemical. The settings on record: EC50 for AMPK activation, ELISA. The procedure, abridged: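 Read-out: immunodetected kinase activation after compound exposure, run with commercial kit reagents.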
(In general: An ELISA detects its analyte on a solid surface through an enzyme-linked reagent.)
The term EC50 denotes the concentration giving half of the maximal effect. High values mean a less potent agent, low ones a more potent agent. `N#Cc1ccc(OC2CCN(C(=O)c3ccc(C(=O)NC4CCN(Cc5cc(F)cc(F)c5)CC4)cn3)CC2)cc1` [Compound 322, 6-(4-(4-cyanophenoxy)piperidine-1-carbonyl)-N-(1-(3,5-difluorobenzyl)piperidin-4-yl)nicotinamide]: the EC50 was less than 500 nM.

Take `N#Cc1ccc(CN2CCC(NC(=O)c3ccc(C(=O)N4CCC(Oc5ccc(C#N)cc5)CC4)nc3)CC2)cc1` [Compound 323, N-(1-(4-cyanobenzyl)piperidin-4-yl)-6-(4-(4-cyanophenoxy)piperidine-1-carbonyl)nicotinamide]: the EC50 was less than 500 nM.

For `N#Cc1ccc(OC2CCN(C(=O)c3ccc(C(=O)N[C@H]4CC[C@@H](Oc5ccc(F)cc5)CC4)cn3)CC2)cc1` [Compound 324, 6-(4-(4-cyanophenoxy)piperidine-1-carbonyl)-N-((cis)-4-(4-fluorophenoxy)cyclohexyl)nicotinamide], the EC50 is less than 500 nM. Next, `COc1ccc(C(=O)C2CCN(C(=O)c3ccc(C(=O)Nc4ccc(Oc5ccc(F)cc5)nc4)cn3)CC2)cc1` [Compound 325, N-(6-(4-fluorophenoxy)pyridin-3-yl)-6-(4-(4-methoxybenzoyl)piperidine-1-carbonyl)nicotinamide]: less than 500 nM; `N#Cc1ccc(OC2CCN(C(=O)c3ccc(C(=O)Nc4ccc(Oc5ccc(F)cc5)nc4)cn3)CC2)cc1` [Compound 326, 6-(4-(4-cyanophenoxy)piperidine-1-carbonyl)-N-(6-(4-fluorophenoxy)pyridin-3-yl)nicotinamide]: less than 500 nM. In the case of `COc1ccc(CN2CCC(NC(=O)c3ccc(C(=O)N4CCN(Cc5ccc(F)cc5)CC4)nc3)CC2)cc1` [Compound 327, 6-(4-(4-fluorobenzyl)piperazine-1-carbonyl)-N-(1-(4-methoxybenzyl)piperidin-4-yl)nicotinamide], the EC50 was less than 500 nM. The compound `O=C(NC1CCN(Cc2ccc(F)cc2)CC1)c1ccc(C(=O)N2CCN(Cc3ccc(F)cc3)CC2)nc1` [Compound 328, 6-(4-(4-fluorobenzyl)piperazine-1-carbonyl)-N-(1-(4-fluorobenzyl)piperidin-4-yl)nicotinamide] had an EC50 of less than 500 nM. In the case of `COc1ccc(CN2CCC(NC(=O)c3ccc(C(=O)N4CCC(C(=O)c5ccc(F)c(F)c5)CC4)cn3)CC2)cc1` [Compound 329, 5-(4-(3,4-difluorobenzoyl)piperidine-1-carbonyl)-N-(1-(4-methoxybenzyl)piperidin-4-yl)picolinamide] it was less than 500 nM; in that of `O=C(Nc1ccc(Oc2ccc(F)cc2)nc1)c1ccc(C(=O)N2CCC(C(=O)c3ccc(F)c(F)c3)CC2)cn1` [Compound 330, 5-(4-(3,4-difluorobenzoyl)piperidine-1-carbonyl)-N-(6-(4-fluorophenoxy)pyridin-3-yl)picolinamide], 500 to 1000 nM. In the case of `COc1ccc(CN2CCC(NC(=O)c3ccc(C(=O)N4CCC(C(=O)c5ccc(F)cc5F)CC4)cn3)CC2)cc1` [Compound 331, 5-(4-(2,4-difluorobenzoyl)piperidine-1-carbonyl)-N-(1-(4-methoxybenzyl)piperidin-4-yl)picolinamide] it was less than 500 nM; in that of `N#Cc1ccc(O[C@H]2CC[C@@H](NC(=O)c3ccc(C(=O)N4CCN(Cc5ccc(F)cc5)CC4)nc3)CC2)cc1` [Compound 332, N-((cis)-4-(4-cyanophenoxy)cyclohexyl)-6-(4-(4-fluorobenzyl)piperazine-1-carbonyl)nicotinamide], less than 500 nM. Next, `CC(C)(C)OC(=O)N1CCC(NC(=O)c2ccc(C(=O)N3CCC(Oc4ccc(C#N)cc4)CC3)nc2)CC1` [Compound 333, tert-butyl 4-(6-(4-(4-cyanophenoxy)piperidine-1-carbonyl)nicotinamido)piperidine-1-carboxylate]: less than 500 nM; `O=C(Nc1ccc(Oc2ccc(F)cc2)nc1)c1ccc(C(=O)N2CCN(Cc3ccc(F)cc3)CC2)nc1` [Compound 334, 6-(4-(4-fluorobenzyl)piperazine-1-carbonyl)-N-(6-(4-fluorophenoxy)pyridin-3-yl)nicotinamide]: less than 500 nM; `N#Cc1ccc(OC2CCN(C(=O)c3ccc(C(=O)NC4CCNCC4)cn3)CC2)cc1` [Compound 335, 6-(4-(4-cyanophenoxy)piperidine-1-carbonyl)-N-(piperidin-4-yl)nicotinamide]: more than 10000 nM. Turning to `N#Cc1ccc(OC2CCN(C(=O)c3ccc(C(=O)NC4CCN(Cc5ccc(N6CCCC6)cc5)CC4)cn3)CC2)cc1` [Compound 336, 6-(4-(4-cyanophenoxy)piperidine-1-carbonyl)-N-(1-(4-(pyrrolidin-1-yl)benzyl)piperidin-4-yl)nicotinamide], the EC50 was less than 500 nM. In the case of `N#Cc1ccc(OC2CCN(C(=O)c3ccc(C(=O)NC4CCN(Cc5ccc(N6CCOCC6)cc5)CC4)cn3)CC2)cc1` [Compound 337, 6-(4-(4-cyanophenoxy)piperidine-1-carbonyl)-N-(1-(4-morpholinobenzyl)piperidin-4-yl)nicotinamide] it was less than 500 nM; in that of `N#Cc1ccc(CN2CCC(NC(=O)c3ccc(C(=O)N4CCN(c5ccc(C(F)(F)F)cc5)CC4)cn3)CC2)cc1` [Compound 339, N-(1-(4-cyanobenzyl)piperidin-4-yl)-5-(4-(4-(trifluoromethyl)phenyl)piperazine-1-carbonyl)picolinamide], less than 500 nM; in that of `N#Cc1ccc(CN2CCC(NC(=O)c3ccc(C(=O)N4CCN(c5ccc(C#N)cc5)CC4)cn3)CC2)cc1` [Compound 340, N-(1-(4-cyanobenzyl)piperidin-4-yl)-5-(4-(4-cyanophenyl)piperazine-1-carbonyl)picolinamide], less than 500 nM. Next, `N#Cc1ccc(CN2CCC(NC(=O)c3ccc(C(=O)N4CCN(c5ccc(F)cc5)CC4)cn3)CC2)cc1` [Compound 341, N-(1-(4-cyanobenzyl)piperidin-4-yl)-5-(4-(4-fluorophenyl)piperazine-1-carbonyl)picolinamide]: less than 500 nM; `O=C(Nc1ccc(Oc2ccc(F)cc2)nc1)c1ccc(C(=O)N2CCC(C(=O)c3ccc(F)cc3F)CC2)cn1` [Compound 342, 5-(4-(2,4-difluorobenzoyl)piperidine-1-carbonyl)-N-(6-(4-fluorophenoxy)pyridin-3-yl)picolinamide]: less than 500 nM; `O=C(Nc1ccc(Oc2ccc(F)cc2)nc1)c1ccc(C(=O)N2CCC(Oc3ccc(F)cc3F)CC2)nc1` [Compound 343, 6-(4-(2,4-difluorophenoxy)piperidine-1-carbonyl)-N-(6-(4-fluorophenoxy)pyridin-3-yl)nicotinamide]: less than 500 nM. The compound `COc1ccc(CN2CCC(NC(=O)c3ccc(C(=O)N4CCC(Oc5ccc(F)cc5F)CC4)nc3)CC2)cc1` [Compound 344, 6-(4-(2,4-difluorophenoxy)piperidine-1-carbonyl)-N-(1-(4-methoxybenzyl)piperidin-4-yl)nicotinamide] returned an EC50 of less than 500 nM. In the case of `N#Cc1ccc(CN2CCC(NC(=O)c3ccc(C(=O)N4CCC(Oc5ccc(F)cc5F)CC4)nc3)CC2)cc1` [Compound 345, N-(1-(4-cyanobenzyl)piperidin-4-yl)-6-(4-(2,4-difluorophenoxy)piperidine-1-carbonyl)nicotinamide] it was less than 500 nM. As to `N#Cc1ccc(CN2CCC(NC(=O)c3ccc(C(=O)N4CCC(C(=O)c5ccc(F)cc5F)CC4)nc3)CC2)cc1` [Compound 346, N-(1-(4-cyanobenzyl)piperidin-4-yl)-6-(4-(2,4-difluorobenzoyl)piperidine-1-carbonyl)nicotinamide], the half-maximal effective concentration (EC50) is less than 500 nM. In the case of `COc1ccc(CN2CCC(NC(=O)c3ccc(C(=O)N4CCC(C(=O)c5ccc(F)cc5F)CC4)nc3)CC2)cc1` [Compound 347, 6-(4-(2,4-difluorobenzoyl)piperidine-1-carbonyl)-N-(1-(4-methoxybenzyl)piperidin-4-yl)nicotinamide] it was less than 500 nM; in that of `O=C(Nc1ccc(Oc2ccc(F)cc2)nc1)c1ccc(C(=O)N2CCC(C(=O)c3ccc(F)cc3F)CC2)nc1` [Compound 348, 6-(4-(2,4-difluorobenzoyl)piperidine-1-carbonyl)-N-(6-(4-fluorophenoxy)pyridin-3-yl)nicotinamide], less than 500 nM. Next, `N#Cc1ccc(CN2CCC(NC(=O)c3ccc(N4CCC(Oc5ccc(C#N)cc5)CC4)nn3)CC2)cc1` [Compound 351, N-(1-(4-cyanobenzyl)piperidin-4-yl)-6-(4-(4-cyanophenoxy)piperidin-1-yl)pyridazine-3-carboxamide]: less than 500 nM.

Compound `N#Cc1ccc(OC2CCN(C(=O)c3ccc(C(=O)NC4CCN(Cc5nccs5)CC4)cn3)CC2)cc1` [Compound 356, 6-(4-(4-cyanophenoxy)piperidine-1-carbonyl)-N-(1-(thiazol-2-ylmethyl)piperidin-4-yl)nicotinamide] returned a half-maximal effective concentration (EC50) of less than 500 nM. In turn, `CN(C)C(=O)c1ccc(OC2CCN(C(=O)c3ccc(C(=O)NC4CCN(Cc5ccc(C#N)cc5)CC4)nc3)CC2)cc1` [Compound 357, N-(1-(4-cyanobenzyl)piperidin-4-yl)-5-(4-(4-(dimethylcarbamoyl)phenoxy)piperidine-1-carbonyl)picolinamide] registered an EC50 of less than 500 nM. `CC(=O)c1ccc(OC2CCN(C(=O)c3ccc(C(=O)NC4CCN(Cc5ccc(C#N)cc5)CC4)nc3)CC2)cc1` [Compound 358, 5-(4-(4-acetylphenoxy)piperidine-1-carbonyl)-N-(1-(4-cyanobenzyl)piperidin-4-yl)picolinamide]: the EC50 is less than 500 nM. In the case of `CC(=O)c1ccc(OC2CCN(C(=O)c3ccc(C(=O)Nc4ccc(Oc5ccc(F)cc5)nc4)nc3)CC2)cc1` [Compound 359, 5-(4-(4-acetylphenoxy)piperidine-1-carbonyl)-N-(6-(4-fluorophenoxy)pyridin-3-yl)picolinamide], the EC50 was less than 500 nM. Next, `CN(C)C(=O)c1ccc(OC2CCN(C(=O)c3ccc(C(=O)Nc4ccc(Oc5ccc(F)cc5)nc4)nc3)CC2)cc1` [Compound 360, 5-(4-(4-(dimethylcarbamoyl)phenoxy)piperidine-1-carbonyl)-N-(6-(4-fluorophenoxy)pyridin-3-yl)picolinamide]: less than 500 nM; `N#Cc1ccc(CN2CCC(NC(=O)c3ccc(N4CCC(Oc5ccc(C(F)(F)F)cc5)CC4)nn3)CC2)cc1` [Compound 361, N-(1-(4-cyanobenzyl)piperidin-4-yl)-6-(4-(4-(trifluoromethyl)phenoxy)piperidin-1-yl)pyridazine-3-carboxamide]: less than 500 nM.

Source of the values: patent US9663496B2, “AMPK-activating heterocyclic compounds and methods for using the same” (Rigel Pharmaceuticals, Inc., priority 2010, dated 2017).
